Holding throughout (type): binding
Assay [1] addresses T1, Growth factor receptor-bound protein-2 (GRB2) (Homo sapiens, UniProt P62993). In words: SPR (GRB2 immobilized on CM5 chip); authors call conditions sub-par for this compound.
The target in assay [2] is T1, Growth factor receptor-bound protein-2 (GRB2). In words: SPR (GRB2 immobilized on CM5 chip); supported by competition ELISA with GST-GRB2 and cellulose nitrate filtration assay. (In general: ELISA stands for enzyme-linked immunosorbent assay.)
Assay [3] has the same target. In words: SPR (GRB2 immobilized on CM5 chip); authors call conditions sub-par; only two non-zero concentrations shown. An excerpt:
SPR (GRB2 immobilized on CM5 chip); authors call conditions sub-par; only two non-zero concentrations shown on Growth factor receptor-bound protein-2 (GRB2) | SPR data of NHD2-107 versus GRB2.

The structures appear in SMILES notation.

T1 sequence (P62993 whole entry): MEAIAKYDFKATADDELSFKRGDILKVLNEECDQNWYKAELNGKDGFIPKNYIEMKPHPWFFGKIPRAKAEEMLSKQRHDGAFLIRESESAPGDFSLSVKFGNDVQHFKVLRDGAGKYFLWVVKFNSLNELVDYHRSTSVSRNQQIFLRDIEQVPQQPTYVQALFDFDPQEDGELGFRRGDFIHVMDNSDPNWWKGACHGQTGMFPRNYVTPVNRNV

As for `CCOC(=O)c1c(C)oc2nc3ccccc3nc12` [NHD2-114], in assay [1], the Kd (usually the equilibrium constant for the complex coming apart) stood at 440 ± 7 µM. `CC(=O)c1c(C)oc2nc3ccccc3nc12` [NHD2-15] registered a Kd in assay [2] of 119 ± 2 µM. The compound `COC(=O)c1c(C)oc2nc3ccccc3nc12` [NHD2-92] returned a Kd in assay [1] of 1000 ± 20 µM. Compound `CCOC(=O)c1c(-c2ccccc2)oc2nc3ccccc3nc12` [NHD2-107] gave a Kd in assay [3] of 3400 ± 100 µM.

These data come from article PMC7418987, “NHD2-15, a novel antagonist of Growth Factor Receptor-Bound Protein-2 (GRB2), inhibits leukemic proliferation” (PLoS ONE, 2020).
